Measurements taken from paper PMC11429909, “Protein Structure Inspired Discovery of a Novel Inducer of Anoikis in Human Melanoma” (Cancers, 2024).
Where “and” joins values, the source holds several entries; their conditions need not be identical. Identical values can stand only once. Entries after “also recorded” stand apart in the source; their conditions may differ.

What was measured:
SK-MEL-5 cells = experiment: Adherent versus floating cell quantification from images, SK-MEL-5; type: cell-based, human; conditions: 20 µM, 3-day treatment, mean ± SEM (N = 4), controls 19.5 ± 3.2%
Protocol: After treatment of M14 and SK-MEL-5 cells with different concentrations of Dxr2-017 or vehicle for 3 or 8 days, as denoted, cell images were captured at 20X in a transmitted light channel using the EVOS™ M5000 Imaging System (Invitrogen (Waltham, MA, USA)). Western blots were performed as previously described by us. Briefly, cells were collected and lysed using RIPA lysis buffer (25 mM Tris-HCl pH 7.6, 150 mM NaCl, 1% NP-40, 1% sodium deoxycholate, and 0.1% SDS; Thermo Scientific^TM (Waltham, MA, USA), #89900), supplemented with protease and phosphatase inhibitor cocktail (Thermo Scientific^TM, #78442) and 1 mM of PMSF. […]
Figure 8 Dxr2-017 inhibits melanoma cell growth through induction of anoikis. […] Data are expressed as the percent of untreated control and are the mean ± SEM of three separate experiments. […] M14 and SK-MEL-5 cells were treated for eight days with 20 nM and 50 nM of Dxr2-017, respectively, and the phase of the cell cycle was determined by flow cytometry. […] (D) Adherent and floating cells were quantified from captured images. Data are the mean ± SEM (N = 4), expressed as a percentage to total cells. * Denotes p-value ≤ 0.05 compared to respective floating or attached cells. […]
We then assessed whether Dxr2-017 induced apoptosis. […]

pan-cadherin = experiment: Western blot for pan-cadherin, M14; type: cell-based, human
Protocol: (§1) After treatment of M14 and SK-MEL-5 cells with different concentrations of Dxr2-017 or vehicle for 3 or 8 days, as denoted, cell images were captured at 20X in a transmitted light channel using the EVOS™ M5000 Imaging System (Invitrogen (Waltham, MA, USA)). Western blots were performed as previously described by us. Briefly, cells were collected and lysed using RIPA lysis buffer (25 mM Tris-HCl pH 7.6, 150 mM NaCl, 1% NP-40, 1% sodium deoxycholate, and 0.1% SDS; Thermo Scientific^TM (Waltham, MA, USA), #89900), supplemented with protease and phosphatase inhibitor cocktail (Thermo Scientific^TM, #78442) and 1 mM of PMSF. Resultant Western blots were probed using antibodies against cleaved caspase 3 (Cell Signaling Technology (Danvers, MA, USA), #9664), pan-cadherin (Cell Signaling Technology, #4068), and β-actin (Santa Cruz (Santa Cruz, CA, USA), #sc-47778).
These findings led us to compare cleaved caspase 3 between adherent cells and floating cells. Cleaved caspase 3 is an indicator of programmed cell death, and its triggering by loss of cell attachment is an established means of detecting anoikis. Adherent cells were prepared as above. […]

[1] = test system: human cord blood CD34+ cells; experiment: Bone marrow stem cell (hematopoietic trilineage) colony formation assay; type: cell-based
Protocol: Human hematopoietic stem cell trilineage colony formation assays were performed as previously described by us. Briefly, human cord blood CD34+ cells (catalog #: 70008.5) were purchased from StemCell Technology Inc. and seeded at 1 × 10^4 cells per 35 mm dish. Cells were cultured in MethoCult™ Express (StemCell Technologies, Inc. (Vancouver, BC, Canada)) semisolid media, per the manufacturer’s instructions, in the presence of compound or vehicle (for controls). Compounds were added at final concentrations matching those used in the initial growth assay screens. At eight days, colonies (i.e., groups of ≥10 cells) were counted. At fourteen days, individual colonies of erythroid burst-forming units (BFU-E), colony-forming unit granulocyte–macrophage (CFU-GM), and colony-forming unit granulocyte, erythrocyte, monocyte, and megakaryocyte (CFU-GEMM) were identified based on the manufacturers’ morphologic characterization criteria. Assays were run in replicates of N = 2, and some were run in replicates of N = 4, as denoted. The mean number of colonies was then determined and expressed as the percentage of controls. The effect of each compound on inhibiting the growth of cancer cells relative to its toxic effects on normal bone marrow was evaluated. This was carried out by comparing colonies at 8 days for each cancer cell line to that of bone marrow. This information was used to calculate the efficacy ratio, as follows: efficacy ratio = (percent of remaining cancer cell colonies)/(percent of remaining bone marrow colonies). This was performed for all compounds at 40 µM and for selected compounds at 5.7 µM, as denoted. For compounds nominated for second-level screens, bone marrow colony formation assays were also repeated. Compounds were added at final concentrations matching those used in the initial screens.
In parallel with measuring growth inhibition of cancer cell growth, we measured the effect on human hematopoietic stem cells. Hematopoietic stem cells reside in the bone marrow and are the source of mature cells present in blood. Bone marrow is one of the most sensitive organs in the body to drug toxicity, and this is especially so for anticancer drugs, where bone marrow toxicity can approach 100% [78, 79, 80]. Bone marrow toxicity was measured by performing hematopoietic colony formation assays on human CD34+ stem cells. The stem cell nature of this assay permitted the assessment of trilineage colony formation: granulocytic (white blood cells), erythrocytic (red blood cells), and megakaryocytic (platelets), measured by the formation of CFU-GM, BFU-E, and CFU-GEMM colonies, respectively. Two measurements were taken. First, total colonies at eight days were measured, thereby matching the eight-day timeframe of cancer cell colony formation assays. Second, at fourteen days, individual colonies had differentiated, permitting quantification of each lineage.

cleaved caspase 3 = experiment: Western blot for cleaved caspase 3, SK-MEL-5; type: cell-based, human; conditions: up to 20 µM, three days
Protocol: as §1
We then assessed whether Dxr2-017 induced apoptosis. We treated M14 and SK-MEL-5 cells with Dxr2-017 for three days at concentrations of up 10 and 20 µM, respectively, and measured cleaved caspase 3 using Western blot. […] In this assay, cells were grown in six-well plates and washed prior to lysis, and thus only adherent cells remained. […] Adherent cells are spread out and fusiform shaped, while detached/floating cells are round, as previously reported by us. […]

c1ccc2sc(-c3ccc(CNc4ccc5nnnn5n4)o3)nc2c1 [Dxr2-017]
floating cell population, percentage to total cells (SK-MEL-5 cells): 60.8 ± 10.4% | cadherin expression (pan-cadherin): decreased cadherin expression in a concentration-dependent manner | inhibition of normal bone marrow eight-day colony formation ([1]; 40 µM, 8 days): 30.2 ± 0.7% and 30% | decrease of BFU-E compared to the control ([1]; 40 µM, 14 days): 97.1 ± 4.1% | decrease of CFU-GM compared to the control ([1]; 40 µM, 14 days): 49.8 ± 0.0% | increase of CFU-GEMM compared to the control ([1]; 40 µM, 14 days): 16.1 ± 12.0% | inhibition of normal bone marrow fourteen-day total colony formation ([1]; 40 µM, 14 days): 42.6 ± 5.8% | Mean Number of Colonies, % of Control, 14 days ([1]; normal bone marrow, compound at 40 µM, 14 days, N = 2): 57 % of Control | Mean Number of Colonies, % of Control, 8 days ([1]; normal bone marrow, compound at 40 µM, total colonies at 8 days, N = 2): 70 % of Control | cleaved caspase 3, adherent and floating cells combined (cleaved caspase 3): clear formation was observed | cleaved caspase 3, adherent cells only (cleaved caspase 3): did not see any induction of cleaved caspase 3; also recorded: no formation of cleaved caspase 3
